Tests used:
Settings in all cases: membranes from stably transfected CHO cells, 3H-QNB 100-200 pM, 25° C., 90 minutes
[1] = target: T1, cloned human M1 muscarinic receptor (Homo sapiens, UniProt P11229); experiment: Muscarinic binding activity, 3H-QNB displacement, M1
T1 sequence (P11229 1-460): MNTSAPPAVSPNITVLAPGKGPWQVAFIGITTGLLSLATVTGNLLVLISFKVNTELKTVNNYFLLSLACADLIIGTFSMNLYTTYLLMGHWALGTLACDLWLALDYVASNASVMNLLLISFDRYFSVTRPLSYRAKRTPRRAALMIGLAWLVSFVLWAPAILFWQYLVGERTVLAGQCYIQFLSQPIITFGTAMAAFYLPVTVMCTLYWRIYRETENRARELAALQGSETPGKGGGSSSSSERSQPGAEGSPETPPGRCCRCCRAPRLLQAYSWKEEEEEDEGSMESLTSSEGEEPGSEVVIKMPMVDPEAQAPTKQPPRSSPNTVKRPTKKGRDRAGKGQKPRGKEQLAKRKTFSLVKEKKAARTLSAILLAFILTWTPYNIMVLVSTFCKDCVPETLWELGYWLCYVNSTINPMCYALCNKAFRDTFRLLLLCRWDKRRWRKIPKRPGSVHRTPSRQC

[2] = target: T2, cloned human M2 muscarinic receptor (Homo sapiens, UniProt P08172); experiment: Muscarinic binding activity, 3H-QNB displacement, M2
T2 sequence (P08172 1-466): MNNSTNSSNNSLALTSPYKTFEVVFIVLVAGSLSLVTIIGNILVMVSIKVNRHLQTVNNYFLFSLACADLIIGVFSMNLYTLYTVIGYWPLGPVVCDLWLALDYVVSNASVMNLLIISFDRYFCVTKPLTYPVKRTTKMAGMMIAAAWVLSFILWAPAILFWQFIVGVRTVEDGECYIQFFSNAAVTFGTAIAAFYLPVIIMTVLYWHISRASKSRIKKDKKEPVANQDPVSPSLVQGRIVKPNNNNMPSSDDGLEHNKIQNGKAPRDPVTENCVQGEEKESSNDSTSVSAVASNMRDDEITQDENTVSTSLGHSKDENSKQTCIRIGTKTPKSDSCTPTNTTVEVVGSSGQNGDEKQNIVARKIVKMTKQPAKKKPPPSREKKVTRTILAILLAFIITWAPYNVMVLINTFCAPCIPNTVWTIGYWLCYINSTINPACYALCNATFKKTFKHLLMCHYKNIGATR

[3] = target: cloned human M3 muscarinic receptor (Homo sapiens, UniProt P20309); experiment: Muscarinic binding activity, 3H-QNB displacement, M3
Sequence of cloned human M3 muscarinic receptor (P20309 whole entry): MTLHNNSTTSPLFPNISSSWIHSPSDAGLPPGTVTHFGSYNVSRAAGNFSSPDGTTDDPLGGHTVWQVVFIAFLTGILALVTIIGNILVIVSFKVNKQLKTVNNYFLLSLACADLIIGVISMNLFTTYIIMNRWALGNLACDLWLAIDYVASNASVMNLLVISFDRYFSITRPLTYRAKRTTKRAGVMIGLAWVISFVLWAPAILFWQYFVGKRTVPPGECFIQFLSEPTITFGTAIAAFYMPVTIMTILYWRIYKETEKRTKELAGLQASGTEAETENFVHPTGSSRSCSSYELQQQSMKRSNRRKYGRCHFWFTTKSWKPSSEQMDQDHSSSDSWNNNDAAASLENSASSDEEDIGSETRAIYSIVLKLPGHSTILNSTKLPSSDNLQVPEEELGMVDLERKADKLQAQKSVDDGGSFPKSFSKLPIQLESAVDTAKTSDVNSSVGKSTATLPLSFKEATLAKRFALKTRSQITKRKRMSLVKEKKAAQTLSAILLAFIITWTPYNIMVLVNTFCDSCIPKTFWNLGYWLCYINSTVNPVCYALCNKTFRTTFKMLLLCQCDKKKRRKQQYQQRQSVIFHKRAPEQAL

[4] = target: T3, cloned human M4 muscarinic receptor (Homo sapiens, UniProt P08173); experiment: Muscarinic binding activity, 3H-QNB displacement, M4
T3 sequence (P08173 1-479): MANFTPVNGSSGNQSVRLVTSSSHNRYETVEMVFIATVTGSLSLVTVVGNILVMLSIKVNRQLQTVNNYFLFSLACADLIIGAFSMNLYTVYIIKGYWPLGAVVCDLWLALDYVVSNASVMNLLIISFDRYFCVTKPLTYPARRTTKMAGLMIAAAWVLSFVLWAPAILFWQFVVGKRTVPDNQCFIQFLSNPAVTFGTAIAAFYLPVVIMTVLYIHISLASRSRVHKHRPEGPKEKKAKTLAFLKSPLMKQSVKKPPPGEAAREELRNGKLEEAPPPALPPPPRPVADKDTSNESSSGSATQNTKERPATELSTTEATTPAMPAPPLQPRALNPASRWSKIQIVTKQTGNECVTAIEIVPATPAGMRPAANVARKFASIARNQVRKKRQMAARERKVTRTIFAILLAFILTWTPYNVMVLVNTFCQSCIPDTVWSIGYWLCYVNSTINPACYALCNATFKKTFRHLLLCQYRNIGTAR

[5] = target: T4, cloned human M5 muscarinic receptor (Homo sapiens, UniProt P08912); experiment: Muscarinic binding activity, 3H-QNB displacement, M5
T4 sequence (P08912 1-532): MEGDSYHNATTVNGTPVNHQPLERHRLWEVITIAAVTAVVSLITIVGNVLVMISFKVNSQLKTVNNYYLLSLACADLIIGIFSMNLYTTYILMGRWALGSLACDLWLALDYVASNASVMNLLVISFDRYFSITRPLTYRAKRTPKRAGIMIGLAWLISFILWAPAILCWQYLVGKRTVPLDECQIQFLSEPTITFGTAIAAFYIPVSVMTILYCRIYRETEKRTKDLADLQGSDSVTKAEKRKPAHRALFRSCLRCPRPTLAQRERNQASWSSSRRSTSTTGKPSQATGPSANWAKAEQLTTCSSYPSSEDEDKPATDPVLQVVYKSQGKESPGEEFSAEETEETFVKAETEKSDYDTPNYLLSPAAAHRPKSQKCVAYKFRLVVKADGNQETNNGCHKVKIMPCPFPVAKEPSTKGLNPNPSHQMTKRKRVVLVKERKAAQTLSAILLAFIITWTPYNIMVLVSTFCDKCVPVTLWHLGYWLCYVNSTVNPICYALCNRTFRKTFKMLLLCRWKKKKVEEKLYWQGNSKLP

Row | SMILES | Ki [1] [nM] | Ki [2] [nM] | Ki [3] [nM] | Ki [4] [nM] | Ki [5] [nM]
1 | Cc1cccc(C(=O)N2CCC(N3CCC4(CC3)C(c3ccc(OC(C)C)cc3)C4(Cl)Cl)CC2)c1Cl (stereo not shown) [Compound 1] | > 990 | > 1400 | > 1000 | > 1000 | 891
2 | Cc1c(Cl)cccc1C(=O)N1CCC(N2CCC3(CC2)C(c2ccc(OC(C)C)cc2)C3(Cl)Cl)CC1 (stereo not shown) [Compound 2] | 982 | > 1400 | – | – | –
3 | CC(C)Oc1ccc(C2C(Cl)(Cl)C23CCN(C2CCN(C(=O)c4cccc(Cl)c4Cl)CC2)CC3)cc1 (stereo not shown) [Compound 3] | > 996 | > 1440 | > 1000 | > 1000 | > 1500
4 | Cc1cccc(C(=O)N2CCC(N3CCC4(CC3)C(c3ccc(OC(C)C)cc3)C4(Cl)Cl)CC2)c1N (stereo not shown) [Compound 4] | > 990 | 77 | > 1000 | > 1000 | 96
5 | CC(C)Oc1ccc(C2C(Cl)(Cl)C23CCN(C2CCN(C(=O)c4cccc(Cl)c4N)CC2)CC3)cc1 (stereo not shown) [Compound 5] | > 990 | 1390 | > 1000 | > 1000 | 786
6 | CC(C)Oc1ccc(C2C(Cl)(Cl)C23CCN(C2CCN(C(=O)c4cccc(F)c4N)CC2)CC3)cc1 (stereo not shown) [Compound 6] | > 990 | 1200 | > 1000 | > 1000 | 42
7 | Cc1c(Cl)cccc1C(=O)N1CCC(N2CCC3(CC2)CC3c2ccc(OC(C)C)cc2)CC1 (stereo not shown) [Compound 7] | > 900 | > 1380 | > 1000 | > 1000 | > 1500
8 | CC(C)Oc1ccc(C2CC23CCN(C2CCN(C(=O)c4cccc(Cl)c4Cl)CC2)CC3)cc1 (stereo not shown) [Compound 8] | 819 | 607 | > 1000 | > 1000 | > 1500
9 | CC(C)Oc1ccc(C2CC23CCN(C2CCN(C(=O)c4cccc(Cl)c4N)CC2)CC3)cc1 (stereo not shown) [Compound 9] | > 900 | 490 | > 1000 | > 1000 | > 1500
10 | CC(C)Oc1ccc(C2(C)CC23CCN(C2CCN(C(=O)c4cccc(Cl)c4Cl)CC2)CC3)cc1 (stereo not shown) [Compound 10] | 1010 | 149 | > 1200 | 261 | 995
11 | CC(C)Oc1ccc(C2(C)CC23CCN(C2CCN(C(=O)c4cccc(Cl)c4N)CC2)CC3)cc1 (stereo not shown) [Compound 11] | 600 | 49 | 691 | 151 | 619
12 | Cc1c(Cl)cccc1C(=O)N1CCC(N2CCC3(CC2)CC3(C)c2ccc(OC(C)C)cc2)CC1 (stereo not shown) [Compound 12] | 744 | 113 | > 1200 | 272 | 1210
13 | CC(C)Oc1ccc(C2C(Cl)(Cl)C23CCN(C2CCN(C(=O)c4ccc(F)c5ccccc45)CC2)CC3)cc1 (stereo not shown) [Compound 13] | > 1200 | > 1900 | – | – | –
14 | CC(C)Oc1ccc(C2C(Cl)(Cl)C23CCN(C2CCN(C(=O)c4cccc5c(Br)cccc45)CC2)CC3)cc1 (stereo not shown) [Compound 14] | > 1200 | > 1900 | – | – | –
15 | CCCS(=O)(=O)N1CCC(N2CCC3(CC2)C(c2ccc(OC(C)C)cc2)C3(Cl)Cl)CC1 (stereo not shown) [Compound 15] | > 1200 | 481 | – | – | –
16 | CC(C)Oc1ccc(C2C(Cl)(Cl)C23CCN(C2CCN(S(=O)(=O)c4cccc5ccccc45)CC2)CC3)cc1 (stereo not shown) [Compound 16] | > 1200 | 1840 | – | – | –
17 | Cc1cccc(C)c1C(=O)N1CCC(N2CCC3(CC2)C(c2ccc(OC(C)C)cc2)C3(Cl)Cl)CC1 (stereo not shown) [Compound 17] | > 1200 | > 1900 | – | – | –

From patent US6890936B2, “Muscarinic antagonists” (Schering Corporation, priority 2002, dated 2005)
